Literature values, collected in patent US20070116750A1, “Compositions for disrupting and inhibiting reconstitution of wound biofilm” (priority 2005, published 2007).

Test system: established biofilm
Conditions: applied at full strength to an established biofilm

OCl [sodium hypochlorite]
biofilm killed: 50%
